Patent publication US12440500B2, “Phytoecdysones and the derivatives thereof for use in the treatment of neuromuscular diseases” (BIOPHYTIS, priority 2019, dated 2025)

How the values were obtained:
Type in all cases: in vivo, mouse
[1] = system: ERK; test: Western blot, phosphorylation of ERK in SMA mice
[2] = system: motor neurons of the lumbar spinal cord of SMA mice; test: Motor neuron count, location and soma surface (anti-ChAT immunofluorescence, lumbar spinal cord)
Protocol: A quantitative and qualitative study of the populations of motor neurons on thick cross-sections of the lumbar region of the spinal cord (L1-L5) of healthy control mice or SMA treated with the vehicle or with BIO101 for 11 days was carried out via immunofluorescent labeling with Choline AcetylTransferase (ChAT) such as was described hereinabove (Biondi et al., 2008; Boyer et al., 2013). The analysis was then refined by a study of the different motor neuron sub-populations by characterizing their location in the spinal cord (lateral or medial position), as well as the distribution of the size of their soma.
The anesthetized mice underwent an intracardiac infusion with PBS. The spinal cords of the mice were taken, fixed then rinsed. The lumbar region of the spinal cords (L1-L5) was coated in a 4% solution of agarose. 50 μm cross-sections were made using a vibratome over the entire length of the sample. One section every 5 sections of spinal cord was then used for the immunohistochemical analyses. After a saturation with 0.1M glycine, the tissues were then permeabilized, blocked then marked with a goat polyclonal primary antibody anti-choline acetyltransferase (ChAT) ( 1/400^e). The sections are then washed then incubated with the anti-goat polyclonal secondary antibody coupled with Cyanine 3 (1:400^e). The cores are marked using Bisbenzimide ( 1/1,000^e) then the sections are washed again before being mounted with a photobleaching inhibitor of the fluorescent dyes. The specificity of the marking is verified thanks to a control marking carried out in the absence of the primary antibody.
The images were obtained using a camera mounted on a microscope with a magnification of ×200 and coupled to a central processing unit of the microcomputer type comprising in particular a suitable software for image acquisition. All of the counts were carried out using image processing software.
The quantitative analysis was then refined, on the one hand, by studying the different motor neuron sub-populations by analyzing their location in the spinal cord (lateral or medial position), and on the other hand, by studying the distribution of the surface of their soma.

[3] = system: AKT; test: Western blot, phosphorylation of AKT in SMA mice
Protocol: The frozen muscle Plantaris was homogenized in extraction buffer by mechanical grinding. The supernatant containing the protein extract was sampled, then the protein extracts were then dosed according to the Lowry protein assay. An electrophoresis on SDS-PAGE gel was conducted, then the separated proteins were transferred onto membranes. The primary antibodies used were the following: mouse monoclonal anti-SMN (1:5,000), rabbit polyclonal anti-Ser 473 phospho-AKT (1:1000), rabbit polyclonal anti-AKT ( 1/100), rabbit monoclonal anti phospho-ERK ½ (1:500), anti-MAP Kinase ½ (ERK ½) (1:1000). […] The optical density of each specific band was quantified with image processing software by subtracting the background and by normalizing with the optical density of the β-actin bands. For the controls treated with the vehicle, the values obtained were determined at 1 and the values of the other groups were normalized in relation to these controls and expresses as a relative quantity. […] The quantitative values of pAKT at the Plantaris represent 3 mice per group treated with the vehicle (control or SMA) and 4 mice treated with BIO101. The quantitative values of pERK at the Plantaris represent at least 4 mice per group. The quantitative values of SMN represent n=2. […]

[4] = muscle Plantaris, SMA mice treated P0 to P11
[5] = spinal cord, SMA mice treated daily for 11 days

Question: Which “level of phosphorylation of ERK (pERK)” value [1, 4] does the source give for `CC(C)(O)CC[C@@H](O)[C@](C)(O)[C@H]1CC[C@@]2(O)C3=CC(=O)[C@@H]4C[C@@H](O)[C@@H](O)C[C@]4(C)[C@H]3CC[C@]12C` [BIO101, 20-hydroxyecdysone] here?
Answer: greatly decreased

Question: And the “level of pERK” value [1, 5]?
Answer: decreasing

Question: And the “loss of motor neurons in relation to healthy control mice” value ([2]; 11 days of daily treatment (SMA vehicle 25%))?
Answer: 13%

Question: What about the “number of motor neurons per section by semi-ventral spinal cord” value ([2]; 11 days of daily treatment, versus SMA vehicle, p<0.05) of the same compound?
Answer: significantly higher

Question: And the “effect on the medial motor neurons” value ([2]; versus SMA vehicle)?
Answer: no significant effect

Question: And the “number of lateral motor neurons” value ([2]; versus SMA vehicle)?
Answer: higher

Question: What about the “number of small motor neurons with a soma surface less than 300 μm^2” value ([2]; versus SMA vehicle, p<0.05) of the same compound?
Answer: significantly limiting

Question: And the “phosphorylation of AKT (pAKT)” value [3, 4]?
Answer: very substantially increasing

Question: What about the “level of pAKT” value [3, 5] of the same compound?
Answer: increasing
